What was measured:
c-kit mutant D816V = c-kit mutant D816V (Homo sapiens (Human), UniProt P10721, D816V/DEL694-753); assay: c-Kit mutant D816V biochemical assay (AlphaScreen kinase activity)
How it was run: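 AlphaScreen with streptavidin donor and PY30 acceptor beads read phosphotyrosine on biotin-(E4Y)10 substrate (30 nM). Enzyme: E. coli-expressed N-His c-Kit D816V, residues 551-934 lacking kinase insert 694-753. Reaction 30 min at room temperature, 10 μM ATP, 5% DMSO; IC50 fitted over 8 three-fold dilutions.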

[1] = system: BaF3-FL KIT D816V or BaF3-FL KIT V560G/D816V cell line; assay: Cell-based assays of c-Kit mutant kinase activity (cell proliferation, ATPlite); conditions: at least one of the c-kit cell assays of Example 7
How it was run: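 BaF3 cells dependent on transfected full-length human KIT D816V or V560G/D816V (pCI-Neo, CMV promoter) were seeded at 1×10^4 cells/well and exposed to 8-point 1:3 dilutions from 10 μM top (0.2% DMSO) for three days at 37° C. ATPlite luminescence gave cell number; IC50 from concentration-response.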

Sequence of c-kit mutant D816V (P10721 other isoform, or with tags, fused parts or gaps D816V/del 694-753): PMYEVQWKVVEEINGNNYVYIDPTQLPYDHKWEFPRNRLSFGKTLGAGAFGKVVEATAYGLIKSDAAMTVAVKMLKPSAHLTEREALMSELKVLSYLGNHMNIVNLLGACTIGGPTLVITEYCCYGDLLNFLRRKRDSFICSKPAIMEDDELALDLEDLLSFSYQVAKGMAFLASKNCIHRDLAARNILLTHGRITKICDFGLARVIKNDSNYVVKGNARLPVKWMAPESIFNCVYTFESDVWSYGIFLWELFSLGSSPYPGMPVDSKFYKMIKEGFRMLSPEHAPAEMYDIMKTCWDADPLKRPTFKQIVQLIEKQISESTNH

Row | SMILES | IC50 (c-kit mutant D816V) | IC50 [1]
1 | COc1cccc(-c2[nH]c(C3(C)CCN(c4ncnc5[nH]c(-c6ccc(OCC(=O)O)cc6)cc45)CC3)nc2C)c1 [P-3221, 2-[4-[4-[4-[5-(3-methoxyphenyl)-4-methyl-1H-imidazol-2-yl]-4-methyl-1-piperidyl]-7H-pyrrolo[2,3-d]pyrimidin-6-yl]phenoxy]acetic acid] | 0.0001 to 1 µM | < 10000 nM
2 | CNC(=O)c1ccc(-c2cc3c(N4CCC(C)(c5nc(C)c(-c6cccc(OC)c6)[nH]5)CC4)ncnc3[nH]2)cn1 [P-3222, 5-[4-[4-[5-(3-methoxyphenyl)-4-methyl-1H-imidazol-2-yl]-4-methyl-1-piperidyl]-7H-pyrrolo[2,3-d]pyrimidin-6-yl]-N-methyl-pyridine-2-carboxamide] | 0.0001 to 1 µM | < 10000 nM
3 | COc1cccc(-c2[nH]c(C3(C)CCN(c4ncnc5[nH]c(-c6ccc(N7CCOCC7)nc6)cc45)CC3)nc2C)c1 [P-3223, 4-[5-[4-[4-[5-(3-methoxyphenyl)-4-methyl-1H-imidazol-2-yl]-4-methyl-1-piperidyl]-7H-pyrrolo[2,3-d]pyrimidin-6-yl]-2-pyridyl]morpholine] | 0.0001 to 1 µM | < 10000 nM
4 | CCOc1ccc(-c2[nH]c(C3(C)CCN(c4ncnc5[nH]c(-c6ccc(OCC(=O)O)cc6)cc45)CC3)nc2C)cc1 [P-3224, 2-[4-[4-[4-[5-(4-ethoxyphenyl)-4-methyl-1H-imidazol-2-yl]-4-methyl-1-piperidyl]-7H-pyrrolo[2,3-d]pyrimidin-6-yl]phenoxy]acetic acid] | 0.0001 to 1 µM | < 10000 nM
5 | COc1cccc(-c2[nH]c(C3(C)CCN(c4ncnc5[nH]c(-c6ccc(C(N)=O)cc6)cc45)CC3)nc2C)c1 [P-3225, 4-[4-[4-[5-(3-methoxyphenyl)-4-methyl-1H-imidazol-2-yl]-4-methyl-1-piperidyl]-7H-pyrrolo[2,3-d]pyrimidin-6-yl]benzamide] | 0.0001 to 1 µM | < 10000 nM
6 | CCOc1ccc(-c2[nH]c(C3(C)CCN(c4ncnc5[nH]c(-c6ccc(C(=O)NC)nc6)cc45)CC3)nc2C)cc1 [P-3226, 5-[4-[4-[5-(4-ethoxyphenyl)-4-methyl-1H-imidazol-2-yl]-4-methyl-1-piperidyl]-7H-pyrrolo[2,3-d]pyrimidin-6-yl]-N-methyl-pyridine-2-carboxamide] | 0.0001 to 1 µM | < 10000 nM
7 | CCOc1ccc(-c2[nH]c(C3(C)CCN(c4ncnc5[nH]c(-c6ccc(N7CCOCC7)nc6)cc45)CC3)nc2C)cc1 [P-3227, 4-[5-[4-[4-[5-(4-ethoxyphenyl)-4-methyl-1H-imidazol-2-yl]-4-methyl-1-piperidyl]-7H-pyrrolo[2,3-d]pyrimidin-6-yl]-2-pyridyl]morpholine] | 0.0001 to 1 µM | < 10000 nM
8 | COc1ccc(-c2[nH]c(C3(C)CCN(c4ncnc5[nH]c(-c6ccc(NS(C)(=O)=O)cc6)cc45)CC3)nc2C)cc1C [P-3228, N-[4-[4-[4-[5-(4-methoxy-3-methyl-phenyl)-4-methyl-1H-imidazol-2-yl]-4-methyl-1-piperidyl]-7H-pyrrolo[2,3-d]pyrimidin-6-yl]phenyl]methanesulfonamide] | 0.0001 to 1 µM | < 10000 nM
9 | CCOc1ccc(-c2[nH]c(C3(C)CCN(c4ncnc5[nH]c(-c6ccc(C(N)=O)cc6)cc45)CC3)nc2C)cc1 [P-3229, 4-[4-[4-[5-(4-ethoxyphenyl)-4-methyl-1H-imidazol-2-yl]-4-methyl-1-piperidyl]-7H-pyrrolo[2,3-d]pyrimidin-6-yl]benzamide] | 0.0001 to 1 µM | < 10000 nM
10 | CCOc1ccc(-c2[nH]c(C3(C)CCN(c4ncnc5[nH]c(-c6ccc(NS(C)(=O)=O)cc6)cc45)CC3)nc2C)cc1 [P-3230, N-[4-[4-[4-[5-(4-ethoxyphenyl)-4-methyl-1H-imidazol-2-yl]-4-methyl-1-piperidyl]-7H-pyrrolo[2,3-d]pyrimidin-6-yl]phenyl]methanesulfonamide] | 0.0001 to 1 µM | < 10000 nM
11 | Cc1nc(C2(C)CCN(c3ncnc4[nH]c(-c5ccc(C(N)=O)cc5)cc34)CC2)[nH]c1-c1cccc(OC(F)F)c1 [P-3231, 4-[4-[4-[5-[3-(difluoromethoxy)phenyl]-4-methyl-1H-imidazol-2-yl]-4-methyl-1-piperidyl]-7H-pyrrolo[2,3-d]pyrimidin-6-yl]benzamide] | 0.0001 to 1 µM | < 10000 nM
12 | Cc1nc(C2(C)CCN(c3ncnc4[nH]c(-c5ccc(NS(C)(=O)=O)cc5)cc34)CC2)[nH]c1-c1cccc(OC(F)F)c1 [P-3232, N-[4-[4-[4-[5-[3-(difluoromethoxy)phenyl]-4-methyl-1H-imidazol-2-yl]-4-methyl-1-piperidyl]-7H-pyrrolo[2,3-d]pyrimidin-6-yl]phenyl]methanesulfonamide] | 0.0001 to 1 µM | < 10000 nM
13 | Cc1nc(C2(C)CCN(c3ncnc4[nH]c(-c5ccc(OCC(=O)O)cc5)cc34)CC2)[nH]c1-c1cccc(OC(F)F)c1 [P-3233, 2-[4-[4-[4-[5-[3-(difluoromethoxy)phenyl]-4-methyl-1H-imidazol-2-yl]-4-methyl-1-piperidyl]-7H-pyrrolo[2,3-d]pyrimidin-6-yl]phenoxy]acetic acid] | 0.0001 to 1 µM | < 10000 nM
14 | COc1cccc(-c2[nH]c(C3(C)CCN(c4ncnc5[nH]c(-c6ccc(NS(C)(=O)=O)cc6)cc45)CC3)nc2C)c1 [P-3234, N-[4-[4-[4-[5-(3-methoxyphenyl)-4-methyl-1H-imidazol-2-yl]-4-methyl-1-piperidyl]-7H-pyrrolo[2,3-d]pyrimidin-6-yl]phenyl]methanesulfonamide] | 0.0001 to 1 µM | < 10000 nM
15 | CNC(=O)c1ccc(-c2cc3c(N4CCC(C)(c5nc(C)c(-c6ccc(C(F)F)cc6)[nH]5)CC4)ncnc3[nH]2)cn1 [P-3235, 5-[4-[4-[5-[4-(difluoromethyl)phenyl]-4-methyl-1H-imidazol-2-yl]-4-methyl-1-piperidyl]-7H-pyrrolo[2,3-d]pyrimidin-6-yl]-N-methyl-pyridine-2-carboxamide] | 0.0001 to 1 µM | < 10000 nM
16 | CNC(=O)c1ccc(-c2cc3c(N4CCC(C)(c5nc(C)c(-c6cccc(OC(F)F)c6)[nH]5)CC4)ncnc3[nH]2)cn1 [P-3236, 5-[4-[4-[5-[3-(difluoromethoxy)phenyl]-4-methyl-1H-imidazol-2-yl]-4-methyl-1-piperidyl]-7H-pyrrolo[2,3-d]pyrimidin-6-yl]-N-methyl-pyridine-2-carb oxamide] | 0.0001 to 1 µM | < 10000 nM
17 | Cc1nc(C2(C)CCN(c3ncnc4[nH]c(-c5ccc(N6CCOCC6)nc5)cc34)CC2)[nH]c1-c1ccc(C(F)F)cc1 [P-3237, 4-[5-[4-[4-[5-[4-(difluoromethyl)phenyl]-4-methyl-1H-imidazol-2-yl]-4-methyl-1-piperidyl]-7H-pyrrolo[2,3-d]pyrimidin-6-yl]-2-pyridyl]morpholine] | 0.0001 to 1 µM | < 10000 nM
18 | Cc1nc(C2(C)CCN(c3ncnc4[nH]c(-c5ccc(N6CCOCC6)nc5)cc34)CC2)[nH]c1-c1cccc(OC(F)F)c1 [P-3238, 4-[5-[4-[4-[5-[3-(difluoromethoxy)phenyl]-4-methyl-1H-imidazol-2-yl]-4-methyl-1-piperidyl]-7H-pyrrolo[2,3-d]pyrimidin-6-yl]-2-pyridyl]morpholine] | 0.0001 to 1 µM | < 10000 nM
19 | Cc1nc(C2(C)CCN(c3ncnc4[nH]c(-c5ccc(C(N)=O)cc5)cc34)CC2)[nH]c1-c1ccc(C(F)F)cc1 [P-3239, 4-[4-[4-[5-[4-(difluoromethyl)phenyl]-4-methyl-1H-imidazol-2-yl]-4-methyl-1-piperidyl]-7H-pyrrolo[2,3-d]pyrimidin-6-yl]benzamide] | 0.0001 to 1 µM | < 10000 nM
20 | Cc1nc(C2(C)CCN(c3ncnc4[nH]c(-c5ccc(OCC(=O)O)cc5)cc34)CC2)[nH]c1-c1ccc(C(F)F)cc1 [P-3240, 2-[4-[4-[4-[5-[4-(difluoromethyl)phenyl]-4-methyl-1H-imidazol-2-yl]-4-methyl-1-piperidyl]-7H-pyrrolo[2,3-d]pyrimidin-6-yl]phenoxy]acetic acid] | 0.0001 to 1 µM | < 10000 nM
21 | Cc1nc(C2(C)CCN(c3ncnc4[nH]c(-c5ccc(OCC(=O)O)cc5)cc34)CC2)[nH]c1-c1ccc(OC(F)F)cc1 [P-3241, 2-[4-[4-[4-[5-[4-(difluoromethoxy)phenyl]-4-methyl-1H-imidazol-2-yl]-4-methyl-1-piperidyl]-7H-pyrrolo[2,3-d]pyrimidin-6-yl]phenoxy]acetic acid] | 0.0001 to 1 µM | < 10000 nM
22 | Cc1nc(C2(C)CCN(c3ncnc4[nH]c(-c5cnn(C(F)F)c5)cc34)CC2)[nH]c1-c1ccc(OC(F)F)cc1 [P-3242, 4-[4-[5-[4-(difluoromethoxy)phenyl]-4-methyl-1H-imidazol-2-yl]-4-methyl-1-piperidyl]-6-[1-(difluoromethyl)pyrazol-4-yl]-7H-pyrrolo[2,3-d]pyrimidine] | 0.0001 to 1 µM | < 10000 nM
23 | CCOc1ccc(-c2[nH]c(C3(C)CCN(c4ncnc5[nH]c(-c6ccc(C(N)=O)cc6)cc45)CC3)nc2C)cc1C [P-3243, 4-[4-[4-[5-(4-ethoxy-3-methyl-phenyl)-4-methyl-1H-imidazol-2-yl]-4-methyl-1-piperidyl]-7H-pyrrolo[2,3-d]pyrimidin-6-yl]benzamide] | 0.0001 to 1 µM | < 10000 nM
24 | CCOc1ccc(-c2[nH]c(C3(C)CCN(c4ncnc5[nH]c(-c6ccc(OCC(=O)O)cc6)cc45)CC3)nc2C)cc1C [P-3244, 2-[4-[4-[4-[5-(4-ethoxy-3-methyl-phenyl)-4-methyl-1H-imidazol-2-yl]-4-methyl-1-piperidyl]-7H-pyrrolo[2,3-d]pyrimidin-6-yl]phenoxy]acetic acid] | 0.0001 to 1 µM | < 10000 nM

From patent US9771369B2, “Compounds and methods for kinase modulation, and indications therefor” (Plexxikon Inc., priority 2014, dated 2017)
